IC50 data for 25 compounds are collected here from patent US11136311B2, “Heteroaromatic derivatives as NIK inhibitors” (Janssen Pharmaceutica NV, priority 2016, dated 2021).

The target of experiment [1] is recombinant human NF-kappaB-inducing kinase (NIK/MAP3K14) (Homo sapiens (Human), UniProt Q99558). In words: Inhibition of auto-phosphorylation of recombinant human NIK/MAP3K14 activity (AlphaScreen). It counts as biochemical. The conditions noted are these: averaged values over all measurements on all batches. The method, boiled down:
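AlphaScreen read-out, using anti-phospho-IKK Ser176/180 antibody, tracked NIK autophosphorylation after 1 h at 25° C. Reactions held 0.2 nM GST-NIK, 25 microM ATP and compound in 1% DMSO, Tris pH 7.5 buffer. IC50 fitted sigmoidally to blank-subtracted inhibition data.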
On the technique in general: Alpha assays give light when donor and acceptor beads are brought close together.

Experiment [2] relates to P-IKKα levels in L363 cells. The experiment in a line: Effect of compounds on P-IKKα levels in L363 (NIK translocated multiple myeloma) cells. It counts as cell-based, human. Summed up: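 L363 myeloma cells were primed 24 h with BAFF, then treated 2 h with compound (8-point, 1:3 dilutions, 1% DMSO) at 37°C. P-IKKα in lysates was measured by Mesoscale sandwich immunoassay, with the full-inhibition blank subtracted. IC50 came from a sigmoidal fit of % inhibition of control against log concentration.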

Another experiment deals with JJN-3 cells. The experiment in a line: Antiproliferative activity on JJN-3 (NIK translocated) multiple myeloma cells (CellTiter-Glo). Format: cell-based, human. The conditions noted are these: read-out: JJN-3 Proliferation inhibition (IC50 (nM)). The method, boiled down: (§1)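 Viability was read by CellTiter-Glo after 96 hr compound exposure (9-point, 1:3 serial dilutions; 0.3% DMSO final). JJN-3 and KMS12-BM cells were seeded at 15000 and 20000 per well respectively in RPMI 1640/10% FCS; blank-subtracted signals were given as percent of drug-free controls.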
(Cellular ATP, detected with luciferase, serves as a proxy for viable cell number.)

A further experiment concerns KMS12-BM cells. In words: Antiproliferative activity on KMS12-BM (NIK WT) multiple myeloma cells (CellTiter-Glo). The conditions noted are these: read-out: KMS-12 Proliferation inhibition (IC50 (nM)). Format: cell-based, human. Summed up:
as §1

The mark [3] stands for this setting: Homo sapiens, L-363, L363 cells, averaged values, read-out: Inhibition of pIKKα_L-363 (IC50 (nM)).
[4] abbreviates: Homo sapiens, JJN-3, 96 h, JJN-3 (NIK translocated) cells, 96 hr, averaged values.
[5] abbreviates: Homo sapiens, KMS-12-BM, 96 h, KMS12-BM (NIK WT) cells, 96 hr, averaged values.

Structures are written as SMILES. Read-outs that look alike come from different tables or passages of the source. Some results are limits rather than exact numbers.

Chain of recombinant human NF-kappaB-inducing kinase (NIK/MAP3K14) (Q99558 whole entry): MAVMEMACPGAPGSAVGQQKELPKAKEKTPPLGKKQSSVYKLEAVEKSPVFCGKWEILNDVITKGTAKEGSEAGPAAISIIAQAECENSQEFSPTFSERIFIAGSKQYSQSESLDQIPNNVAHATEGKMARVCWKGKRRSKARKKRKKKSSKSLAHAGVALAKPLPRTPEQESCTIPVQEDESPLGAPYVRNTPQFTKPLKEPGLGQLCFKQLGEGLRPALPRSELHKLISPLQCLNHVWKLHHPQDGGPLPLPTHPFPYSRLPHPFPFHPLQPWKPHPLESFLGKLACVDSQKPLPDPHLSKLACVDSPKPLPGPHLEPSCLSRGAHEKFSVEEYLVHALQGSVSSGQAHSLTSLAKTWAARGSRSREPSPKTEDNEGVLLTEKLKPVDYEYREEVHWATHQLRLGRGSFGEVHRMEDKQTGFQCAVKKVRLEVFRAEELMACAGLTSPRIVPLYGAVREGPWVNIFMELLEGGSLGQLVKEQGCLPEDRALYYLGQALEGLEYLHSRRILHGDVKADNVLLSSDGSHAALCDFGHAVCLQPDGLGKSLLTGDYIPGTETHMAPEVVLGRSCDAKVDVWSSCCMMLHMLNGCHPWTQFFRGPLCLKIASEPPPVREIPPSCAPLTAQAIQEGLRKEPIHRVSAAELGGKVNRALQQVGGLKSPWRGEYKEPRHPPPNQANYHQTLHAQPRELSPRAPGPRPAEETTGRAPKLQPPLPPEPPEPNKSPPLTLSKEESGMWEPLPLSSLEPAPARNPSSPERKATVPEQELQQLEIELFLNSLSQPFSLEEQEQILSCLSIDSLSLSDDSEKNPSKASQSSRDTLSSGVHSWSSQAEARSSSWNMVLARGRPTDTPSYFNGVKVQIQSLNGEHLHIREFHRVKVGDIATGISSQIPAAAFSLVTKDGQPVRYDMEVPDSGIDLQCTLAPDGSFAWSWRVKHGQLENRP

`CNC(=O)c1cc(Nc2nccc(-c3cc(C#N)c4c(c3)[C@@](C)(CO)CN4)n2)n(C(C)C)n1` [Compound 183]: the IC50 in experiment [1] was 22 nM; in experiment [2] (setting [3]), 35 nM; with JJN-3 cells (setting [4]), 1410 nM; in the experiment with KMS12-BM cells (setting [5]), around 9770 nM.
On the same counts, the results for `CN1CCN(C(=O)c2nn(CC(F)F)cc2Nc2nccc(-c3cc(C#N)c4c(c3)[C@@](C)(CO)CN4)n2)CC1` [Compound 184] are 5.4 nM, 17 nM, 224 nM and above 10000 nM.
For the compound `CN1CCN(Cc2nn(CC(F)F)cc2Nc2nccc(-c3cc(C#N)c4c(c3)[C@@](C)(CO)CN4)n2)CC1` [Compound 185], the IC50 in experiment [1] was 6 nM; in experiment [2] (setting [3]), 20 nM; in the experiment on JJN-3 cells (setting [4]), 91 nM; in the experiment with KMS12-BM cells (setting [5]) it was above 10000 nM.
For `Cc1cc(Nc2nccc(-c3cc(C#N)c4c(c3)[C@@](C)(CO)CN4)n2)n(CC(F)F)n1` [Compound 186] the same measures were 6.5 nM, 3 nM, 151 nM and 617 nM.
Consider `CNC(=O)c1nn(CC(F)F)cc1Nc1nccc(-c2cc(C#N)c3c(c2)[C@@](C)(CO)CN3)n1` [Compound 187], for which the IC50 in experiment [1] is 7.2 nM; in experiment [2] (setting [3]) it was 11 nM; in the experiment with JJN-3 cells (setting [4]), around 1380 nM; in the experiment on KMS12-BM cells (setting [5]), above 10000 nM.
Regarding `CC(C)Oc1nn(CC(F)F)cc1Nc1nccc(-c2cc(C#N)c3c(c2)[C@@](C)(CO)CN3)n1` [Compound 188], the IC50 in experiment [1] was 2.9 nM; in experiment [2] (setting [3]) it was 4 nM; in the experiment on JJN-3 cells (setting [4]) it was 138 nM; in the experiment on KMS12-BM cells (setting [5]), around 8130 nM.
Turning to `Cn1ncc(Nc2nccc(-c3cc(C#N)c4c(c3)[C@@](C)(CO)CN4)n2)c1OC1CC1` [Compound 192], the IC50 was 8.1 nM in experiment [1], 6 nM in experiment [2] (setting [3]), 91 nM in the experiment on JJN-3 cells (setting [4]) and above 10000 nM in the experiment with KMS12-BM cells (setting [5]).
In the case of `CC(C)Oc1c(Nc2nccc(-c3cc(C#N)c4c(c3)[C@@](C)(CO)CN4)n2)cnn1C` [Compound 194], the IC50 in experiment [1] is 3.1 nM; in experiment [2] (setting [3]) it was 29 nM; with JJN-3 cells (setting [4]), 407 nM; in the experiment with KMS12-BM cells (setting [5]), above 10000 nM.
With `CNC(=O)c1cc(Nc2nccc(-c3cc(C#N)c4c(c3)[C@@](C)(CO)CN4)n2)nn1C1CCCC1` [Compound 195], the IC50 in experiment [1] is 4.9 nM; in experiment [2] (setting [3]), 1 nM; with JJN-3 cells (setting [4]) it was 158 nM; in the experiment with KMS12-BM cells (setting [5]), above 10000 nM.
`CNC(=O)c1cc(Nc2nccc(-c3cc(C#N)c4c(c3)[C@@](C)(CO)CN4)n2)n(C2CCCC2)n1` [Compound 196]: the IC50 came out at 8.3 nM in experiment [1], 36 nM in experiment [2] (setting [3]), 554 nM in the experiment with JJN-3 cells (setting [4]) and 5250 nM in the experiment with KMS12-BM cells (setting [5]).
For `CNC(=O)c1cc(Nc2nccc(-c3cc(C#N)c4c(c3)[C@@](C)(CO)CN4)n2)nn1CC(F)F` [Compound 197] the same measures were 2.1 nM, 4 nM, 204 nM and around 2240 nM.
For `CNC(=O)c1cc(Nc2nccc(-c3cc(C#N)c4c(c3)[C@@](C)(CO)CN4)n2)n(CCC2CC2)n1` [Compound 198] the same measures were 6.8 nM, 20 nM, 112 nM and above 10000 nM.
For the compound `CCn1ncc(Nc2nccc(-c3cc(C#N)c4c(c3)[C@@](C)(CO)CN4)n2)c1N1CCOCC1` [Compound 199], the IC50 was 3.5 nM in experiment [1], 25 nM in experiment [2] (setting [3]), 1900 nM in the experiment on JJN-3 cells (setting [4]) and above 10000 nM with KMS12-BM cells (setting [5]).
Turning to `C[C@]1(CO)CNc2c(C#N)cc(-c3ccnc(Nc4cnn(CCN5CC6COCC6C5)c4N4CCOCC4)n3)cc21` (stereo partly shown) [Compound 200], the IC50 in experiment [1] was 5.9 nM; in experiment [2] (Homo sapiens, L-363, read-out: Inhibition of pIKKα_L-363 (IC50 (nM))) it was 20 nM; in the experiment on JJN-3 cells (Homo sapiens, JJN-3, 96 h), 3550 nM; in the experiment on KMS12-BM cells (Homo sapiens, KMS-12-BM, 96 h) it was above 10000 nM.
On to `CNC(=O)c1cc(Nc2nccc(-c3cc(C#N)c4c(c3)[C@@](C)(CO)CN4)n2)nn1CCC1CC1` [Compound 201], for which the IC50 is 3.4 nM in experiment [1]; 2 nM in experiment [2] (L363 cells, averaged values, read-out: Inhibition of pIKKα_L-363 (IC50 (nM))); 100 nM with JJN-3 cells (JJN-3 (NIK translocated) cells, 96 hr, averaged values); above 10000 nM in the experiment on KMS12-BM cells (KMS12-BM (NIK WT) cells, 96 hr, averaged values).
As to `Cn1cc(Nc2nccc(-c3cc(C#N)c4c(c3)[C@@](C)(CO)CN4)n2)c(OCCN2CCOCC2)n1` [Compound 203], the IC50 is 4 nM in experiment [1], 25 nM in experiment [2] (setting [3]), 339 nM in the experiment with JJN-3 cells (setting [4]) and above 10000 nM with KMS12-BM cells (setting [5]).
On the same counts, the results for `CC(C)c1nn(CC(F)F)cc1Nc1nccc(-c2cc(C#N)c3c(c2)[C@@](C)(CO)CN3)n1` [Compound 204] are 1.1 nM, 2 nM, 16 nM and around 6030 nM.
For `C[C@]1(CO)CNc2c(C#N)cc(-c3ccnc(Nc4cn(CC(F)F)nc4C4CC4)n3)cc21` [Compound 205] the same measures were 2.2 nM, 1 nM, 5 nM and around 4900 nM.
For `C[C@]1(CO)CNc2c(C#N)cc(-c3ccnc(Nc4cnn(CCN5CCOCC5)c4Cl)n3)cc21` [Compound 208] the same measures were 2 nM, 4 nM, 48 nM and around 4790 nM.
Regarding `CC(C)n1nc(C(=O)N2CCCC2)cc1Nc1nccc(-c2cc(C#N)c3c(c2)[C@@](C)(CO)CN3)n1` [Compound 210], the IC50 was 6.3 nM in experiment [1], 71 nM in experiment [2] (setting [3]), 1580 nM in the experiment with JJN-3 cells (setting [4]) and above 10000 nM in the experiment with KMS12-BM cells (setting [5]).
As to `C[C@]1(CO)CNc2c(C#N)cc(-c3ccnc(Nc4cc(C(=O)N5CCCC5)n(C5CCCC5)n4)n3)cc21` [Compound 213], the IC50 in experiment [1] is 5.6 nM; in experiment [2] (setting [3]) it was 27 nM; in the experiment on JJN-3 cells (setting [4]), 95 nM; in the experiment on KMS12-BM cells (setting [5]), above 10000 nM.
For `COCCOc1nn(CC(F)F)cc1Nc1nccc(-c2cc(C#N)c3c(c2)[C@@](C)(CO)CN3)n1` [Compound 217] the same measures were 4.6 nM, 11 nM, 154 nM and around 7620 nM.
Turning to `C[C@]1(CO)CNc2c(C#N)cc(-c3ccnc(Nc4cn(CC(F)F)nc4OC4CC4)n3)cc21` [Compound 218], the IC50 in experiment [1] was 2.8 nM; in experiment [2] (setting [3]), 7 nM; in the experiment on JJN-3 cells (setting [4]), 38 nM; with KMS12-BM cells (setting [5]) it was around 7430 nM.
As to `C[C@]1(CO)CNc2c(C#N)cc(-c3cc(Nc4cn(CC(F)F)nc4C4CCOCC4)ncn3)cc21` [Compound 220], the IC50 is 5.6 nM in experiment [1], 11 nM in experiment [2] (setting [3]), 195 nM with JJN-3 cells (setting [4]) and above 10000 nM with KMS12-BM cells (setting [5]).
On the same counts, the results for `COC[C@H](O)Cn1ncc(Nc2nccc(-c3cc(C#N)c4c(c3)[C@@](C)(CO)CN4)n2)c1OC` [Compound 221] are 14.8 nM, around 105 nM, 2290 nM and above 10000 nM.
